Experiments:
[1] = tested on: Puccinia recondita f. sp. tritici; experiment: Test H: wheat leaf rust, preventive spray on wheat seedlings, visual disease rating; conditions: wheat leaf rust, sprayed the day before inoculation; 100 = 100% disease control, 0 = no disease control
[2] = tested on: Botrytis cinerea; experiment: Test A: tomato Botrytis, preventive spray on tomato seedlings, visual disease rating; conditions: tomato Botrytis; 100 = 100% disease control, 0 = no disease control relative to the controls
[3] = tested on: Septoria nodorum; experiment: Test E: Septoria glume blotch, preventive spray on wheat seedlings, visual disease rating; conditions: Septoria glume blotch; 100 = 100% disease control, 0 = no disease control relative to the controls
[4] = tested on: Alternaria solani; experiment: Test B: tomato early blight, preventive spray on tomato seedlings, visual disease rating; conditions: tomato early blight; 100 = 100% disease control, 0 = no disease control relative to the controls
[5] = tested on: Septoria tritici; experiment: Test F: wheat leaf blotch, preventive spray on wheat seedlings, visual disease rating; format: in vivo; conditions: 100 = 100% disease control, 0 = no disease control relative to the controls
Text: (§1) A hyphen (-) indicates no test results.

[6] = tested on: Puccinia recondita f. sp. tritici; experiment: Test G: wheat leaf rust, spray after inoculation (curative) on wheat seedlings, visual disease rating; format: in vivo; conditions: sprayed after inoculation, 100 = 100% disease control, 0 = no disease control
Text: as §1

[7] = tested on: Blumeria graminis f. sp. tritici; experiment: Test I: wheat powdery mildew, preventive spray on wheat seedlings, visual disease rating; conditions: wheat powdery mildew; 100 = 100% disease control, 0 = no disease control relative to the controls

SMILES	Test H rating (disease control) [1]	Test A rating (disease control) [2]	Test E rating (disease control) [3]	Test B rating (disease control) [4]	Test F rating (disease control) [5]	Test G rating (disease control) [6]	Test I rating (disease control) [7]
COc1cc(F)c(Nc2c(-c3ccc(F)cc3F)c(C)nn2C)c(F)c1 [compound 12]	94%	100%	0%	0%	93%	0%	82%
COc1ccc(-c2c(C)nn(C)c2Oc2c(F)cc(C#N)cc2F)c(F)c1 [compound 14]	100%	99%	99%	100%	100%	37%	99%
COc1cc(F)c(Nc2c(-c3ccc(Cl)cc3Cl)c(C)nn2C)c(F)c1 [compound 16]	99%	99%	84%	98%	98%	98%	99%
Cc1nn(C)c(Nc2c(F)cc(F)cc2F)c1-c1ccc(Cl)cc1Cl [compound 18]	99%	100%	98%	98%	99%	95%	97%
COc1cc(F)c(Nc2c(-c3c(F)cc(F)cc3F)c(C)nn2C)c(F)c1 [compound 19]	89%	99%	0%	82%	98%	0%	91%
COc1cc(F)c(-c2c(C)nn(C)c2Nc2c(F)cc(C#N)cc2F)c(F)c1 [compound 20]	68%	100%	40%	100%	99%	0%	13%
COc1cc(F)c(Nc2c(-c3c(F)cc(OC)cc3F)c(C)nn2C)c(F)c1 [compound 21]	96%	100%	89%	100%	99%	99%	94%
COc1cc(F)c(-c2c(C)nn(C)c2Oc2c(F)cccc2F)c(F)c1 [compound 22]	100%	100%	78%	100%	100%	98%	99%
COc1cc(F)c(-c2c(C)nn(C)c2Oc2c(F)cc(Br)cc2F)c(F)c1 [compound 24]	98%	99%	84%	95%	100%	0%	100%
Cc1nn(C)c(Nc2c(F)cc(C#N)cc2F)c1-c1c(F)cc(F)cc1F [compound 26]	99%	100%	99%	100%	100%	41%	100%
Cc1nn(C)c(Oc2ccc(C#N)cc2F)c1-c1c(F)cc(F)cc1F [compound 27]	99%	99%	99%	99%	100%	9%	100%
Cc1nn(C)c(Oc2ccc(C#N)cc2Cl)c1-c1c(F)cc(F)cc1F [compound 28]	99%	100%	69%	17%	100%	26%	99%
COc1ccc(-c2c(C)nn(C)c2Nc2c(F)cc(F)cc2F)c(Cl)c1 [compound 29]	99%	100%	97%	99%	99%	99%	100%
Cc1nn(C)c(Nc2ccc(F)cc2F)c1-c1c(F)cc(C#N)cc1F [compound 30]	99%	100%	90%	99%	100%	82%	100%
Cc1nn(C)c(Nc2ccc(F)cc2Cl)c1-c1c(F)cc(C#N)cc1F [compound 31]	100%	100%	99%	98%	99%	53%	100%
COc1cc(F)c(-c2c(C)nn(C)c2Nc2ccc(C#N)cc2Cl)c(F)c1 [compound 32]	98%	99%	82%	97%	100%	11%	97%
Cc1nn(C)c(Nc2c(F)cc(F)cc2F)c1-c1c(F)cc(C#N)cc1F [compound 35]	100%	100%	60%	100%	99%	0%	94%
COc1cc(F)c(Nc2c(-c3c(F)cc(C#N)cc3F)c(C)nn2C)c(F)c1 [compound 36]	41%	99%	0%	0%	99%	0%	0%
COc1cc(F)c(-c2c(C)nn(C)c2Oc2c(F)cc(C#N)cc2F)c(F)c1 [compound 38]	96%	99%	87%	94%	99%	0%	97%
CCOc1cc(F)c(-c2c(C)nn(C)c2Nc2ccc(F)cc2F)c(F)c1 [compound 39]	99%	99%	98%	99%	100%	0%	100%
